Source: PubChem BioAssay (NCI)
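96-well plates; 48 h exposure; 5 concentrations. Endpoints by linear interpolation between flanking doses. Not reached: highest tested concentration assigned. GI50 is the concentration that inhibits growth by half. TGI denotes the concentration required for complete inhibition of growth.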

Key:
Assay in all cases: NCI-60 cell line screen, 48 h
IGROV1 ovarian = test system: IGROV1 ovarian
MDA-MB-435 = test system: MDA-MB-435
SW-620 colon = test system: SW-620 colon
CAKI-1 renal = test system: CAKI-1 renal
SN12C renal = test system: SN12C renal
NCI-H460 lung = test system: NCI-H460 lung
HCT-15 colon = test system: HCT-15 colon
LOX IMVI melanoma = test system: LOX IMVI melanoma
U251 CNS = test system: U251 CNS
SNB-19 CNS = test system: SNB-19 CNS

| Structure (SMILES) | TGI (IGROV1 ovarian) | TGI (MDA-MB-435) | TGI (SW-620 colon) | TGI (CAKI-1 renal) | TGI (SN12C renal) | TGI (NCI-H460 lung) | TGI (HCT-15 colon) | TGI (LOX IMVI melanoma) | TGI (U251 CNS) | TGI (SNB-19 CNS) | GI50 (SN12C renal) |
| --- | --- | --- | --- | --- | --- | --- | --- | --- | --- | --- | --- |
| Cc1nc2ccc(N=Nc3c(C)noc3C)cc2[nH]1 | 34.3 µM | > 100 µM | > 100 µM | 86.8 µM | > 100 µM | > 100 µM | > 100 µM | 39.2 µM | > 100 µM | > 100 µM |  |
| N/C(CCSCCSCC/C(N)=N\O)=N\O | > 100 µM | > 100 µM | > 100 µM | > 100 µM | > 100 µM | > 100 µM | > 100 µM | > 100 µM | > 100 µM | > 100 µM |  |
| Nc1ccc2c(=S)c3ccccc3[nH]c2c1 | > 100 µM | > 100 µM | > 100 µM | > 100 µM | > 100 µM | > 100 µM | > 100 µM | > 100 µM | > 100 µM | > 100 µM |  |
| CC(=O)Oc1ccc(-c2nnc(-c3ccc(OC(C)=O)cc3)nn2)cc1 | > 100 µM | > 100 µM | > 100 µM | > 100 µM | > 100 µM | > 100 µM | > 100 µM | > 100 µM | > 100 µM | > 100 µM |  |
| O=C1/C(=C/c2ccc(Br)s2)NC(=S)N1CN1CCCCC1 | > 100 µM | > 100 µM | > 100 µM | 59.2 µM | > 100 µM | > 100 µM | > 100 µM | 52 µM | > 100 µM | > 100 µM |  |
| C=C1CC[C@@H]2[C@](C)(COC(=O)CCC(=O)OC)CCC[C@@]2(C)[C@@H]1CCC1=CC(=O)OC1 | > 100 µM | > 100 µM | > 100 µM | 81.3 µM | > 100 µM | > 100 µM | > 100 µM | > 100 µM | > 100 µM | > 100 µM |  |
| CC(C)=CCC[C@@H](C)C1=C(N)C(O)=C(C)C(=O)C1=O | > 75 µM | > 75 µM | > 75 µM | > 75 µM | > 75 µM | > 75 µM | > 75 µM | > 75 µM | > 75 µM | > 75 µM |  |
| COc1cc(CCN)c(OC)c(OC)c1 | > 100 µM | 61.1 µM | > 100 µM | > 100 µM | > 100 µM | > 100 µM | > 100 µM | > 100 µM | > 100 µM | > 100 µM |  |
| Cc1cccc(C)c1NC(=O)C(=O)CC(=O)c1sc(Nc2c(C)cccc2C)nc1C | > 100 µM | > 100 µM | > 100 µM | > 100 µM | > 100 µM | > 100 µM | > 100 µM | > 100 µM | > 100 µM | > 100 µM |  |
| NC(CCC(=O)O)C(=O)NC(Cc1ccc(N(CCCl)CCCl)cc1)C(=O)O (stereo unspecified) | > 100 µM | > 100 µM | > 100 µM | > 100 µM | > 100 µM | > 100 µM | > 100 µM | > 100 µM | > 100 µM | > 100 µM |  |
| S=c1[nH]nc(Cn2c3ccc(Br)cc3c3nc4ccccc4nc32)o1 | > 90.2 µM | > 31.6 µM | > 31.6 µM | > 100 µM | > 100 µM | > 100 µM | > 100 µM | > 65.4 µM | > 92.4 µM | > 100 µM |  |
| COC(=O)c1ccc(CCC2=CC(=O)C=CC2=O)cc1 | 30.2 µM | 28 µM | 26.2 µM | 13.6 µM | > 55.9 µM | 35.9 µM | 23 µM | 24.2 µM | 24.8 µM | > 56.2 µM |  |
| CC(C)(C)OC(=O)/N=C/c1c(O)c2ccccc2oc1=O | > 100 µM | > 100 µM | > 100 µM | 52.6 µM | > 100 µM | > 100 µM | > 100 µM | > 100 µM | > 100 µM | > 100 µM |  |
| CCN(CC)/[N+]([O-])=N/OS(=O)(=O)N(C)C | > 100 µM | > 100 µM | > 100 µM | > 100 µM | > 100 µM | > 100 µM | > 100 µM | > 100 µM | > 100 µM | > 100 µM |  |
| CCOC(=O)c1c(C)n(-c2ccc(C)cc2)c(=O)c2ccccc2c(=O)c2c(=O)ccc(=O)c1=2 | > 100 µM | 30.2 µM | 49.9 µM | 28.1 µM | 66.7 µM | 44.9 µM | 35.1 µM | 36.4 µM | 44.9 µM | 51.7 µM |  |
| COc1ccc(OC/C(N)=N/NC(=O)c2ccncc2)cc1 | > 100 µM | > 100 µM | > 100 µM | > 100 µM | > 100 µM | > 100 µM | > 100 µM | > 100 µM | > 100 µM | > 100 µM |  |
| NCCc1ccc(S(=O)(=O)O)cc1[N+](=O)[O-] | > 100 µM | > 100 µM | > 100 µM | > 100 µM | > 100 µM | > 100 µM | > 100 µM | > 100 µM | > 100 µM | > 100 µM |  |
| COc1ccc(/C=C2\C[C@H]3[C@@H]4CC=C5C[C@@H](O)CC[C@]5(C)[C@H]4CC[C@]3(C)\C2=N\O)cc1 | 96.2 µM | > 100 µM | > 100 µM | 19.3 µM | 44.4 µM | > 100 µM | > 100 µM | 33.3 µM | > 100 µM | > 100 µM |  |
| C(=C\c1cc[n+](CCc2ccccc2)cc1)/c1ccccc1 | > 100 µM | 18.4 µM | 32.3 µM | 86.1 µM | 16.4 µM | > 100 µM | > 100 µM | 37 µM | 18.9 µM | 50.9 µM |  |

| Structure (SMILES) | TGI (IGROV1 ovarian) | TGI (MDA-MB-435) | TGI (SW-620 colon) | TGI (CAKI-1 renal) | TGI (SN12C renal) | TGI (NCI-H460 lung) | TGI (HCT-15 colon) | TGI (LOX IMVI melanoma) | TGI (U251 CNS) | TGI (SNB-19 CNS) | GI50 (SN12C renal) |
| --- | --- | --- | --- | --- | --- | --- | --- | --- | --- | --- | --- |
| COC(=O)c1sc(=S)sc1SCc1cccc(CSc2sc(=S)sc2C(=O)OC)c1 | > 100 µM | > 100 µM | > 100 µM | > 100 µM | > 100 µM | > 100 µM | > 100 µM | > 100 µM | > 100 µM | 86.3 µM |  |
| CC(=O)n1c2ccc(Br)cc2c2nc3ccccc3nc21 | > 100 µM | > 100 µM | > 100 µM | > 100 µM | > 100 µM | > 100 µM | > 100 µM | > 100 µM | > 100 µM | > 100 µM |  |
| COC(=O)C1(CCCCl)CCCN1C(=O)OC(C)(C)C (stereo unspecified) | > 100 µM | > 100 µM | > 100 µM | > 100 µM | > 100 µM | > 100 µM | > 100 µM | > 100 µM | > 100 µM | > 100 µM |  |
| N/C(=N\N=C\c1nc2ccccc2o1)c1cnccn1 | > 100 µM | > 100 µM | > 100 µM | > 100 µM | > 100 µM | > 100 µM | > 100 µM | > 100 µM | > 100 µM | > 100 µM |  |
| COC(=O)c1c(C)cccc1C1CN=NC12Cc1cc(C)c(C)cc1C2=O (stereo unspecified) | > 100 µM | > 100 µM | > 100 µM | > 100 µM | > 100 µM | > 100 µM | > 100 µM | 67.9 µM | > 100 µM | > 100 µM |  |
| CCc1nc(N)nc(N)c1-c1ccc(N2CCOCC2)c(N=[N+]=[N-])c1 | > 100 µM | > 100 µM | > 100 µM | > 100 µM | > 100 µM | > 100 µM | > 100 µM | > 100 µM | > 100 µM | > 78.4 µM |  |
| Cc1cnc2[nH]c(-c3cccc4ccccc34)cc(=O)c2c1 | 43.5 µM | 0.000499 µM | > 100 µM | > 100 µM | > 100 µM | > 100 µM | 0.935 µM | 79.6 µM | 0.0129 µM | > 100 µM | 0.042 µM |
| CCCCCCC1OC23OC1CCC2C(O)CCC3O (stereo unspecified) | > 100 µM | > 100 µM | > 100 µM | > 100 µM | > 100 µM | > 100 µM | > 100 µM | > 100 µM | > 100 µM | > 100 µM |  |
| O=C(Nc1ccc(Cl)cc1Cl)C1C(=O)OC2(CCCCC2)OC1=O | 64.1 µM | 56 µM | 25.3 µM | 22.5 µM | 49.4 µM | 27.4 µM | 29.4 µM | 20.4 µM | 54.1 µM | > 100 µM |  |
| CCN(C(=O)N[C@@H](CC(C)C)C(=O)NCC(=O)OC)c1ccccc1 | > 100 µM | > 100 µM | > 100 µM | > 100 µM | > 100 µM | > 100 µM | > 100 µM | > 100 µM | > 100 µM | > 100 µM |  |
| CCOC(=O)c1cn(-c2ccc([N+](=O)[O-])cc2)c(=S)n2c1nc1ccccc12 | > 100 µM | > 100 µM | > 100 µM | > 100 µM | > 100 µM | > 100 µM | > 100 µM | > 100 µM | > 100 µM | > 100 µM |  |
| Cc1ccc2c(c1C)CC1(Cc3ccc(C)c(C)c3C1=O)C2=O (stereo unspecified) | > 100 µM | > 100 µM | > 100 µM | > 100 µM | > 100 µM | > 100 µM | > 100 µM | > 100 µM | > 100 µM | > 100 µM |  |
| O=c1oc2ccccc2c(-c2ccc(O)cc2)c1Oc1ccccc1 | 18.6 µM | > 100 µM | > 100 µM | > 75.7 µM | 55.3 µM | 20.5 µM | > 70 µM | > 31.6 µM | 24.9 µM | 50.6 µM |  |
| O=C(/C=C/c1ccccc1)CCN1CCCCC1 | > 100 µM | 84.4 µM | 41.6 µM | > 100 µM | 48.8 µM | > 100 µM | > 100 µM | 37.6 µM | 65.6 µM | > 100 µM |  |
| CCCN1C(=O)CN(S(=O)(=O)c2ccc(Cl)cc2)C1=O | > 100 µM | > 100 µM | > 100 µM | > 100 µM | > 100 µM | > 100 µM | > 100 µM | > 100 µM | > 100 µM | > 100 µM |  |
| COc1ccc(OC)c(/C=C2/C(=O)N=C(NC(C)=O)N2C)c1 | > 100 µM | > 100 µM | > 100 µM | > 100 µM | > 100 µM | > 100 µM | > 100 µM | > 100 µM | > 100 µM | > 100 µM |  |
| COc1cc(Nc2cc(Cl)cc(Cl)c2)nc(N)n1 | 44.2 µM | 75.8 µM | 59.8 µM | 42.8 µM | 40.1 µM | 34 µM | 36.5 µM | 32.2 µM | 41.2 µM | 64.8 µM |  |
| CCOc1ccc(NC(=O)C(=O)C(/C(=N/N)C(=O)OC)c2nc3ccc([N+](=O)[O-])cc3[nH]c2=O)cc1 (stereo unspecified) | > 100 µM | > 100 µM | > 100 µM | > 100 µM | > 100 µM | > 100 µM | > 100 µM | > 100 µM | > 100 µM | > 100 µM |  |
